For 23 compounds, IC50 results are on record in patent US20240279221A1, “HETEROCYCLIC COMPOUNDS AND METHODS OF USE” (Schrödinger, Inc., priority 2021, published 2024).

In this assay the target is SOS1:KRAS (G12C) interaction (Homo sapiens (Human), UniProt Q07889). Put plainly: SOS1-KRas(G12C) FRET Assay. The format is binding. The following applies: 0.5 nM His10-SOS1 (res. 564-1049), 2.5 nM GST-KRAS (res. 1-169, G12C); read-out: SOS-KRas(G12C) FRET IC50. How it is done:
Inhibition of the SOS1:KRAS interaction was measured using purified GST-tagged KRAS (res. 1-169, G12C, purified based on Hillig, et al., Proc Natl Acad Sci USA (2019); 116(7):2551-2560) and recombinant His10-SOS1 (res. 564-1049; purified based on Hillig, et al.). The final assay was performed at 20 uL with 0.5 nM SOS1 protein and 2.5 nM KRAS protein in a buffer of PBS, 0.1% BSA, 5 mM MgCl2, 0.0025% Igepal, 100 mM KF, 5 mM DTT in a white 384 square well OptiPlate (PerkinElmer, Cat. 6007290). A 2× KRAS working solution was prepared in an assay buffer containing 5 nM GST-KRAS G12C and 2 nM anti-GST-Eu(K) (Cisbio, Cat. 61GSTKLA) and pre-incubated for 15 minutes at 25° C. Compounds were serially diluted in 100% DMSO from 2 mM (positive control, compound I-13, PCT Publ. No. WO2018/115380) or 20 mM and then diluted 1:20 in assay buffer before incubation with a solution of SOS1 protein mixed 1:5 with anti-6His-XL665 FRET donor (Cisbio, Cat. 61HISXL) for 15 minutes at 25° C. before addition of 2× KRAS working solution. The final DMSO concentration is 0.5%. Plates were incubated at RT for 2 hrs before the FRET signal was measured using Envision at emission 665 nm and 615 nm. FRET signal was converted to percentage of protein-protein interaction using the following equation:
[formula] • C: signal with compound treatment • P: signal for positive control (DMSO) • N: signal for negative control (no SOS1 added) • IC50 and Hill coefficients were obtained using Graph Pad Prism (Graph Pad software, Inc, USA) with non-linear regression analysis.

Sequence of SOS1:KRAS (G12C) interaction (Q07889 564-1049, stated change not applied): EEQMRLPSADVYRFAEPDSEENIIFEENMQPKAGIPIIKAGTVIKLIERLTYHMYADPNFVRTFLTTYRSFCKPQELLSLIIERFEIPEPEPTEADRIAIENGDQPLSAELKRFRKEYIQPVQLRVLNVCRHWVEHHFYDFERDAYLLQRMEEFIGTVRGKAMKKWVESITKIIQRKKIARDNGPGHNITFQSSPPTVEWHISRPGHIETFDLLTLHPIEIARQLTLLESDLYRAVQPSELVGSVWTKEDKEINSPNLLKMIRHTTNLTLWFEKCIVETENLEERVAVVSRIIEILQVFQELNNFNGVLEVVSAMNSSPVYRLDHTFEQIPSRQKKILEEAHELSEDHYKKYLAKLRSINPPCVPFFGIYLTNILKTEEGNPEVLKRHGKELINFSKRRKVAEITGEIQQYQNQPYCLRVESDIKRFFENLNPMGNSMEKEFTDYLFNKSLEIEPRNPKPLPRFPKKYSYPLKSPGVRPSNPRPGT

A word on the IC50: it is the concentration needed to halve the response being measured. In the case of `CC(=O)N1CC[C@](n2cc3c(N[C@H](C)c4cccc5c(F)coc45)nn(C)c(=O)c3cc2=O)(C(F)(F)F)C1` (single isomer, unassigned) [Example 173], the IC50 came to 2790 nM.

With `C[C@@H](Nc1nn(C)c(=O)c2cc(=O)n(C3CC3)cc12)c1cccc2ccccc12` [Example 1, (R)-6-cyclopropyl-2-methyl-4-((1-(naphthalen-1-yl)ethyl)amino)-2,6-dihydropyrido[3,4-d]pyridazine-1,7-dione], the IC50 was 1030 nM.

With `CCn1nc(N[C@H](C)c2cccc(C(F)(F)F)c2C)c2cn(C3CC3)c(=O)cc2c1=O` [Example 8, (R)-6-cyclopropyl-2-ethyl-4-((1-(2-methyl-3-(trifluoromethyl)phenyl)ethyl)amino)-2,6-dihydropyrido[3,4-d]pyridazine-1,7-dione], the IC50 came to 1310 nM.

For the compound `Cc1c([C@@H](C)Nc2nn(C)c(=O)c3cc(=O)n(C4CCN(C)CC4)cc23)cccc1C(F)(F)F` [Example 23, (R)-2-methyl-4-((1-(2-methyl-3-(trifluoromethyl)phenyl)ethyl)amino)-6-(1-methylpiperidin-4-yl)-2,6-dihydropyrido[3,4-d]pyridazine-1,7-dione], the half-inhibitory concentration (IC50) stood at 1950 nM.

On to `COc1c(=O)n(C2CCOCC2)cc2c(N[C@H](C)c3cccc(C(C)(F)F)c3F)nn(C)c(=O)c12` [Example 37, (R)-4-((1-(3-(1,1-difluoroethyl)-2-fluorophenyl)ethyl)amino)-8-methoxy-2-methyl-6-(tetrahydro-2H-pyran-4-yl)-2,6-dihydropyrido[3,4-d]pyridazine-1,7-dione], for which the IC50 is 30.4 nM.

For `C[C@H](Nc1nn(C)c(=O)c2cc(=O)n(C3CCOCC3)cc12)c1cccc2sccc12` [Example 63, (S)-4-((1-(benzo[b]thiophen-4-yl)ethyl)amino)-2-methyl-6-(tetrahydro-2H-pyran-4-yl)-2,6-dihydropyrido[3,4-d]pyridazine-1,7-dione], the IC50 was over 10000 nM.

Take `C[C@H](Nc1nn(C)c(=O)c2cc(=O)n(C3CC3)cc12)c1cccc2sccc12` [Example 65, (S)-4-((1-(benzo[b]thiophen-4-yl)ethyl)amino)-6-cyclopropyl-2-methyl-2,6-dihydropyrido[3,4-d]pyridazine-1,7-dione]: the IC50 was over 100000 nM.

For `COc1c(=O)n(C2CC2)cc2c(N[C@H](C)c3cccc(C(F)F)c3F)nn(C)c(=O)c12` [Example 85, (R)-6-cyclopropyl-4-((1-(3-(difluoromethyl)-2-fluorophenyl)ethyl)amino)-8-methoxy-2-methyl-2,6-dihydropyrido[3,4-d]pyridazine-1,7-dione], the IC50 turned out to be 192 nM.

`C[C@@H](Nc1nn(C)c(=O)c2c(OCCN(C)C)c(=O)n(C3(C(F)F)CC3)cc12)c1cccc(C(F)F)c1F` [Example 86, (R)-4-((1-(3-(difluoromethyl)-2-fluorophenyl)ethyl)amino)-6-(1-(difluoromethyl)cyclopropyl)-8-(2-(dimethylamino)ethoxy)-2-methyl-2,6-dihydropyrido[3,4-d]pyridazine-1,7-dione]: the concentration for half-maximal inhibition (IC50) was found to be 35.3 nM.

`C[C@@H](Nc1nn(C)c(=O)c2c(OC3CC(F)(F)C3)c(=O)n(C3(C(F)F)CC3)cc12)c1cccc(C(F)F)c1F` [Example 87, (R)-8-(3,3-difluorocyclobutoxy)-4-((1-(3-(difluoromethyl)-2-fluorophenyl)ethyl)amino)-6-(1-(difluoromethyl)cyclopropyl)-2-methylpyrido[3,4-d]pyridazine-1,7(2H,6H)-dione]: the IC50 stood at 118 nM.

`C[C@@H](Nc1nn(C)c(=O)c2c(OC3COC3)c(=O)n(C3(C(F)F)CC3)cc12)c1cccc(C(F)F)c1F` [Example 88, (R)-4-((1-(3-(difluoromethyl)-2-fluorophenyl)ethyl)amino)-6-(1-(difluoromethyl)cyclopropyl)-2-methyl-8-(oxetan-3-yloxy)pyrido[3,4-d]pyridazine-1,7(2H,6H)-dione]: the half-maximal inhibitory concentration (IC50) worked out at 83.5 nM.

Take `C[C@@H](Nc1nn(C)c(=O)c2c(O[C@H]3C[C@H](F)C3)c(=O)n(C3(C(F)F)CC3)cc12)c1cccc(C(F)F)c1F` [Example 89, 4-(((R)-1-(3-(difluoromethyl)-2-fluorophenyl)ethyl)amino)-6-(1-(difluoromethyl)cyclopropyl)-8-((1r,3R)-3-fluorocyclobutoxy)-2-methylpyrido[3,4-d]pyridazine-1,7(2H,6H)-dione]: the IC50 is 122 nM.

As for `C[C@@H](Nc1nn(C)c(=O)c2c(OCC3COC3)c(=O)n(C3(C(F)F)CC3)cc12)c1cccc(C(F)F)c1F` [Example 90, (R)-4-((1-(3-(difluoromethyl)-2-fluorophenyl)ethyl)amino)-6-(1-(difluoromethyl)cyclopropyl)-2-methyl-8-(oxetan-3-ylmethoxy)-2,6-dihydropyrido[3,4-d]pyridazine-1,7-dione], the IC50 stood at 59.7 nM.

With `C[C@@H](Nc1nn(C)c(=O)c2cc(=O)n(C3CC3)cc12)c1ccc2c(c1)CCCC2` [Example 101, (R)-6-cyclopropyl-2-methyl-4-((1-(5,6,7,8-tetrahydronaphthalen-2-yl)ethyl)amino)-2,6-dihydropyrido[3,4-d]pyridazine-1,7-dione], the IC50 was over 100000 nM.

For the compound `C[C@H](Nc1nn(C)c(=O)c2cc(=O)n(C3CC3)cc12)c1ccc2c(c1)CCCC2` [Example 102, (S)-6-cyclopropyl-2-methyl-4-((1-(5,6,7,8-tetrahydronaphthalen-2-yl)ethyl)amino)-2,6-dihydropyrido[3,4-d]pyridazine-1,7-dione], the concentration for half-maximal inhibition (IC50) amounted to 3790 nM.

`C[C@H](Nc1nn(C)c(=O)c2cc(=O)n(C3CC3)cc12)c1cccc(C(F)(F)CO)c1F` [Example 103, (S)-6-cyclopropyl-4-((1-(3-(1,1-difluoro-2-hydroxyethyl)-2-fluorophenyl)ethyl)amino)-2-methyl-2,6-dihydropyrido[3,4-d]pyridazine-1,7-dione]: the concentration for half-maximal inhibition (IC50) amounted to 7800 nM.

Take `C[C@@H](Nc1nn(C)c(=O)c2cc(=O)n(C3CC3)cc12)c1cccc(C(F)(F)CO)c1F` [Example 104, (R)-6-cyclopropyl-4-((1-(3-(1,1-difluoro-2-hydroxyethyl)-2-fluorophenyl)ethyl)amino)-2-methyl-2,6-dihydropyrido[3,4-d]pyridazine-1,7-dione]: the 50% inhibitory concentration (IC50) was 37 nM.

Regarding `C[C@H](Nc1nn(C)c(=O)c2cc(=O)n(C3CC3)cc12)c1cccc(C(F)(F)C(=O)N(C)C)c1F` [Example 105, (S)-2-(3-(1-((6-cyclopropyl-2-methyl-1,7-dioxo-1,2,6,7-tetrahydropyrido[3,4-d]pyridazin-4-yl)amino)ethyl)-2-fluorophenyl)-2,2-difluoro-N,N-dimethylacetamide], the IC50 was over 10000 nM.

For `C[C@@H](Nc1nn(C)c(=O)c2cc(=O)n(C3CC3)cc12)c1cccc(C(F)(F)C(=O)N(C)C)c1F` [Example 106, (R)-2-(3-(1-((6-cyclopropyl-2-methyl-1,7-dioxo-1,2,6,7-tetrahydropyrido[3,4-d]pyridazin-4-yl)amino)ethyl)-2-fluorophenyl)-2,2-difluoro-N,N-dimethylacetamide], the half-inhibitory concentration (IC50) amounted to 366 nM.

As to `CNC(=O)C(F)(F)c1cccc([C@@H](C)Nc2nn(C)c(=O)c3cc(=O)n(C4CC4)cc23)c1F` [Example 107, (R)-2-(3-(1-((6-cyclopropyl-2-methyl-1,7-dioxo-1,2,6,7-tetrahydropyrido[3,4-d]pyridazin-4-yl)amino)ethyl)-2-fluorophenyl)-2,2-difluoro-N-methylacetamide], the IC50 turned out to be 271 nM.

With `CNC(=O)C(F)(F)c1cccc([C@H](C)Nc2nn(C)c(=O)c3cc(=O)n(C4CC4)cc23)c1F` [Example 108, (S)-2-(3-(1-((6-cyclopropyl-2-methyl-1,7-dioxo-1,2,6,7-tetrahydropyrido[3,4-d]pyridazin-4-yl)amino)ethyl)-2-fluorophenyl)-2,2-difluoro-N-methylacetamide], the IC50 is over 10000 nM.

As for `COC(C)(C)C(F)(F)c1cccc([C@@H](C)Nc2nn(C)c(=O)c3cc(=O)n(C4CC4)cc23)c1F` [Example 109, (R)-6-cyclopropyl-4-((1-(3-(1,1-difluoro-2-methoxy-2-methylpropyl)-2-fluorophenyl)ethyl)amino)-2-methyl-2,6-dihydropyrido[3,4-d]pyridazine-1,7-dione], the IC50 is 120 nM.

With `COC(C)(C)C(F)(F)c1cccc([C@@H](C)Nc2nn(C)c(=O)c3cc(=O)n(C4(C(F)F)CC4)cc23)c1F` [Example 110, (R)-4-((1-(3-(1,1-difluoro-2-methoxy-2-methylpropyl)-2-fluorophenyl)ethyl)amino)-6-(1-(difluoromethyl)cyclopropyl)-2-methyl-2,6-dihydropyrido[3,4-d]pyridazine-1,7-dione], the half-maximal inhibitory concentration (IC50) came out at 48.1 nM.
